From US5527804A, “4-carbamoyloxy-piperidine-1-carboxylic acid esters: inhibitors or cholesterol absorption” (American Home Products Corporation, priority 1994, dated 1996)
Like-named read-outs stand apart in the source and are kept apart here.

What was measured:
[1] = biological target: T1, cholesterol esterase (EC 3.1.1.13), CEH (Bos taurus, UniProt P30122); assay: In vitro inhibition of cholesteryl ester formation by cholesterol esterase (CEH); type: biochemical
T1 construct: purchased Sigma Company, St. Louis, Mo; C-1892; host or cells: bovine pancreas
T1 sequence (P30122 19-597): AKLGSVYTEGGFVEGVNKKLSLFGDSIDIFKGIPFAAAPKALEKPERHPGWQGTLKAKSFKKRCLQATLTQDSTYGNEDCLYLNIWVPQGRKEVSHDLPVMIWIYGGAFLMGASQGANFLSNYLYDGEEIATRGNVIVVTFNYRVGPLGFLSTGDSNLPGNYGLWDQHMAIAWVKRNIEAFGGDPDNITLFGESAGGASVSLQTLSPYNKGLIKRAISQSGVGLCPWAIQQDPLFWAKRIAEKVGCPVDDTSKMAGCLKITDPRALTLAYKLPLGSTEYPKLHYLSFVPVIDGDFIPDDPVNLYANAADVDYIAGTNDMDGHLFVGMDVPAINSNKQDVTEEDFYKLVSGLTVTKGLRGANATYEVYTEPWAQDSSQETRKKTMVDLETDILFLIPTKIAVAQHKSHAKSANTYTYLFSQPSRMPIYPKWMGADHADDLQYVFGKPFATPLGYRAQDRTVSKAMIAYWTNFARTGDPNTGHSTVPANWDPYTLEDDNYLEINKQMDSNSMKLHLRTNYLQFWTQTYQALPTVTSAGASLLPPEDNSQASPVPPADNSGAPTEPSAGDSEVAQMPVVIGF
Description: In Vitro Assay: The ability of the compounds of this invention to inhibit the formation of cholesteryl esters and thereby interfere with and prevent assimilation of cholesterol into the lymphatic system and ultimately the blood stream was established by incubating the compounds at 37° C. with a mixture of cholesterol and oleic acid in the presence of buffered cholesterol esterase [(EC 3.1.1.13) Sigma Company, St. Louis, Mo., U.S.A., No. C-1892, from bovine pancreas] and measuring the amount of ester formed, according to the procedure of Field, J. of Lipid Research, 25, 389 (1984).

[2] = tested on: absorption of 14C-cholesterol; assay: In vivo cholesterol absorption, serum radioactivity after oral [4-14C] cholesterol; parameters: species or system normal rats; details: normal rat, 6 hr, vs control
Description: In Vivo Assay: The in vivo cholesterol absorption studies were conducted in normal rats by oral administration of the compound being tested in propylene glycol and olive oil followed by oral administration of [4-^14 C] cholesterol in propylene glycol and olive oil, otherwise following the procedure of Cayen et al., J. Lipid Res. 20, 162 (1979). The serum radioactivity was measured at six hours after dosing. The results of this study are reported in Table I as percent decrease compared to control.

[3] = 37° C.; cholesterol + oleic acid; bovine pancreas enzyme; read-out: In Vitro Results IC50 CEH
[4] = IC25 instead of IC50; 37° C.; cholesterol + oleic acid; bovine pancreas enzyme

Compound	IC50 [1, 3]	Effect on Absorption of 14C-Chol, % Decrease ([2]; 10 mg/kg)	IC50 ([1]; read-out: In Vitro Results IC50 CEH; 37° C.; cholesterol + oleic acid; bovine pancreas enzyme)	Effect on Absorption of 14C-Chol, % Decrease ([2]; 3 mg/kg)	IC25 [1, 4]
O=C(NCCCCCCOC(=O)N1CCC(OC(=O)N2CCCCC2)CC1)Oc1ccc(Oc2ccccc2)cc1 [Example 11, 4-(Piperidine-1-carbonyloxy)-piperidine-1-carboxylic acid 6-[(4-phenoxy-phenyl)oxycarbonylamino]-hexyl ester]	5900 nM	81%			
CCCCCCNC(=O)OC1CCN(C(=O)OCCCCCCNC(=O)Oc2ccc(Oc3ccccc3)cc2)CC1 [Example 6, 4-(Hexylcarbamoyloxy)-piperidine-1-carboxylic acid 6-[(4-phenoxy-phenyl)-oxycarbonylamino]-hexyl ester]			1100 nM	49%	
O=C(NCCCCCCOC(=O)N1CCC(OC(=O)N2CCC3(CCCC3)CC2)CC1)Oc1ccc(Oc2ccccc2)cc1 [Example 7, 8-Aza-spiro[4.5]decane-8-carboxylic acid 1-{6-[(4-phenoxy-phenyl)-oxycarbonylamino]-hexyloxycarbonyl}-piperidin-4-yl ester]		50%			200 nM
O=C(NCCCCCCOC(=O)N1CCC(OC(=O)NCCCCc2ccccc2)CC1)Oc1ccc(Oc2ccccc2)cc1 [Example 10, 4-(4-Phenyl-butyl-carbamoyloxy)-piperidine-1-carboxylic acid 6-[(4-phenoxy-phenyl)-oxycarbonylamino]-hexyl ester]		61%			300 nM
CCCCCCCCCCNC(=O)OC1CCN(C(=O)OCCCCCCNC(=O)Oc2ccc(Oc3ccccc3)cc2)CC1 [Example 8, 4-(Decylcarbamoyloxy)-piperidine-1-carboxylic acid 6-[(4-phenoxy-phenyl)-oxycarbonylamino]-hexyl ester]	3000 nM	43%			
O=C(NCCCCCCOC(=O)N1CCC(OC(=O)NC2CCCCC2)CC1)Oc1ccc(Oc2ccccc2)cc1 [Example 9, 4-(Cyclohexylcarbamoyloxy)-piperidine-1-carboxylic acid 6-[(4-phenoxy-phenyl)-oxycarbonylamino]-hexyl ester]		46%			300 nM
